Data published in BindingDB's records for doi:10.1021/ja057257n (University of Pennsylvania, 2006).

What was measured:
Carbonic anhydrase 1 = Carbonic anhydrase 1 (Homo sapiens, UniProt P00915); assay: Competitive Displacement Binding Assay; details: pH 7; 25 °C
Procedure: (§1) The dissociation constant of the hCA and inhibitor complex was determined by competitive displacement of a fixed concentration of dansylamide by increasing concentrations of the inhibitor using Perkin-Elmer lambda 50-B spectrofluorometer. […] The dissociation constant of the enzyme-inhibitor complex was determined by monitoring the decrease in the fluorescence of the enzyme-dansylamide complex as a function of the increasing concentration of the inhibitor.

Carbonic anhydrase 2 = Carbonic anhydrase 2 (Homo sapiens, UniProt P00918); assay: Competitive Displacement Binding Assay; details: pH 7; 25 °C
Procedure: as §1

Carbonic anhydrase 1, sequence (P00915 whole entry): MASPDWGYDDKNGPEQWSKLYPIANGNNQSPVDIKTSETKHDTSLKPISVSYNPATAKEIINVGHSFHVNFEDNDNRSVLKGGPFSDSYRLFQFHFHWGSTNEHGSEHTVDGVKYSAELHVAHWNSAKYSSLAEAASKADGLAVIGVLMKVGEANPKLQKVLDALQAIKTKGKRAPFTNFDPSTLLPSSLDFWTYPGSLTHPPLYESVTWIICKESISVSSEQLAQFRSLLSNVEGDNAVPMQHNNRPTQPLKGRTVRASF

SMILES: NS(=O)(=O)c1ccc(CCNC(=O)c2ccc(CN(CC(=O)O)CC(=O)O)cc2)cc1 [copper(2+) ion 2-[(carboxylatomethyl)[(4-{[2-(4-sulfamoylphenyl)ethyl]carbamoyl}phenyl)methyl]amino]acetate]
- Kd (Carbonic anhydrase 1): 200 nM
- Kd (Carbonic anhydrase 2): 235 nM
